Results taken from patent US7186703B2, “Derivatives of branched-chain lipophilic molecules and uses thereof” (D-Pharm Ltd., priority 2000, dated 2007).
Where “and” joins values, the source holds several entries; their conditions need not be identical. Equal values may be shown once.

Experiments:
[1] = tested on: blood tumor barrier (BTB) of C6 glioma; experiment: BTB opening in C6 glioma-bearing rats, Evans blue accumulation in tumor; type: in vivo, Sprague Dawley rats; conditions: for EC50: C6 glioma-bearing rats; for BTB EB μg/g Tumor: concentrations around EC50 (Mannitol 25%), unilateral 30 s infusion; for Specificity Tumor/Non-tumor (T/NT): ratio of EB accumulated in tumor and non-tumor brain
Description: (§1) In order to study the ability of DP-BFA compounds to modulate blood tumor barrier (BTB), a model system of C6 glioma-bearing rats, was employed.
(§2) Sprague Dawley (SD) rats were inoculated with C6 gliosarcoma cells following the procedure described by Bartus et al. (Exp Neurol (1996); 142:14–28). A small burr-hole was made in the frontal scalp bone of the rat fixed in a stereotaxis apparatus. Using a Hamilton syringe, 10 μl or 5 μl of media, containing 2.5×10^5 C6 gliosarcoma cells were inoculated into the frontal cortex. Coordinates were 1 mm posterior of bregma, 2.5 mm—lateral, and 3 mm—depth. The needle remained in the place for 5 min. After removal of the needle, fascia and scalp were sutured. The rats were checked 6–8 days after inoculation, when tumors of sufficient size (20–60 mg) had developed. The tumor was weighed after F—Na visualization and dissection. Parts of the rats' brains were subject to histological examinations and monitored for Evans Blue and Fluorescein uptake into ipsilateral tumour tissue, peritumoural tissue and contralateral tissue.
(§3) The bilateral tumor model system of C6 glioma-bearing rats described in Example 23 above was employed for screening of various derivatives of DP-BFA for their ability to permeabilize the blood brain barrier (BBB) in comparison to their effect on the blood tumor barrier (BTB). The experimental procedure described in Example 23 was followed except that the tumor-bearing rats were further treated with DP-BFA. The tested compounds, at concentrations around their EC50 values, were unilaterally infused into the external carotis artery over 30 seconds as described in Example 17. Animals treated with vehicle only serve as a control group. Permeabilization effect was quantitated by measuring accumulation of albumin bound Evans blue dye in tumor (T) versus non-tumor (NT) tissues.
(§4) Specificity index is defined as the ratio between the levels of EB accumulated in tumor and those accumulated in non-tumor brain tissues (T/NT).

[2] = Octanol/saline solubility and partition coefficient, shake-flask technique; conditions: for LogPc (octanol-saline partition coefficient): octanol/physiological saline; for LogPc (octanol-saline partition coefficient) / Water mg/ml (solubility in aqueous solution): sodium salts; for Water mg/ml (solubility in aqueous solution): physiological saline as aqueous solution; for Octanol mg/ml (solubility in octanol): sodium salts of the branched fatty acids and their PO4 derivatives
Description: The lipophilicity values of various derivatives of branched fatty acids were estimated by comparing the solubility of these compounds in organic versus aqueous solutions. Octanol and physiological saline were used, respectively, as the organic and aqueous solutions. The partition coefficient (Pc) value, i.e. the octanol/saline distribution was measured by the shake-flask technique.

[3] = tested on: blood brain barrier (BBB); experiment: BBB permeabilization in rats, Evans blue extravasation into brain; type: in vivo, Sprague-Dawley rats; conditions: for MEC: Table 8, sodium salt, in µM; for μg EB/g brain (at EC50) / EC50 / MEC (minimal effective concentration): Table 5; for EC50: rat brain, intracarotid infusion, read-out: EC50 (Evans Blue extravasation); for permeabilization of the BBB (FIG. 1, in words): Evans blue extravasation in rat brain, 3,n-type BFAs; for MEC (minimal effective concentration): concentration giving 3 μg EB/g brain
From the text: Permeabilization of the BBB by DP-BFA was investigated in rat model system by monitoring accumulation in the brain of two markers: a) Evans blue dye (EB), which rapidly binds in vivo with albumin (NW 70 kD) and is an indicator for paracellular transport; and b) Fluorescein sodium salt (F—Na), MW 376 D, which is transported via the cellular space, and enables monitoring transcellular transport. Upon BBB disruption the Evans blue-albumin complex irreversibly accumulates in the intercellular space of the brain. The much smaller tracer fluorescein may be transported intracellularly to occupy both inter and intracellular space in the brain.
Blood brain barrier permeabilization in Sprague-Dawley rats was induced by brief exposure to DP-BFA. The animals were anesthetized with Rampun-Imalgen and DP-BFA test compounds were administered via the external carotid artery retrograde to the brain (Smith, Q. R. Methods of study. In: Physiology and Pharmacology of the Blood-Brain Barrier. Ed. Bradbury M. W. B. Spinger-Verlag. Berlin-Heidelberg-NY; 1992: 24–52). The pterygo-palathina artery was ligated to avoid escape of infused solutions towards the external head vasculature. DP-BFA solutions were infused over a period of 30 seconds or half an hour, using a Harvard Apparatus Syringe Pump. Blood flow through carotid communis artery was interrupted only at the time of infusion.
All tested DP-BFA molecules were prepared from stock solutions in either water or ethanol by diluting 200–1000 fold into solution of isosmotic mannitol (5%) in Tromethamine buffer (Sigma) or PBS (pH 7.4)
The markers, Evans blue (EB, 25 mg/ml) and fluorescein (F—Na, 12.5 mg/ml), in 1 ml solution, were injected intravenously immediately following administration of the tested DP-BFA, or after a specific time interval if reversibility of action was investigated. Supportive i.v. infusion of F—Na (12.5 mg/ml–100 μl/min) was performed for 8 minutes. Brains were washed with saline solution (60 ml) 10 min after the intracarotid “flash”. Brain ipsilateral and contralateral hemispheres and tumors, where applicable, were homogenized separately with 50% trichloroacetic acid (TCA). The markers concentrations in the cortex and in tumors, where, applicable, were determined spectrofluorometrically (Uyama, O. et al., (1988) J. Cereb. Blood Flow Metab. 8, 282–284: Abraham et al., (1996) Neurosci. Lett. 208, 85–88). The markers content was calculated as μg marker per one-gram brain tissue. Standard error and Student's test for statistical significance were used.
The experiment was carried out on male Sprague-Dawley rats weighing 250–320 g. The procedure described above in Example 17 was followed.
The effect of the tested compounds on the BBB opening was evaluated by two parameters:
a) efficacy—The degree of BBB opening estimated in terms of accumulation of Evans Blue albumin (μg EB/g brain tissue); and
b) potency—measured in terms of EC50 and minimal effective concentration (MEC) values. EC50 is the concentration of a tested compound producing 50% of the maximal effect of Evans Blue extravasation.
The effect of various DP-BFAs on BBB permeability was tested in the model system of rat brains, as described above in Example 17. Efficacy, namely the level of the BBB opening was expressed as the amount of Evans blue accumulated in the brain (μg EB/g brain). Potency of the tested molecules was estimated by their calculated EC50 and minimal effective concentration (MEC) values.

[4] = type: in vivo; conditions: rats, sodium salt; for LC (minimal concentration that caused death): i.a., viability monitored 24 hours
Description: DP-BFA molecules were evaluated for safety and toxicity. Increasing doses of the tested compounds were administered intra-arterially (i.a.) into rats following the protocol described above in Example 17. Animal viability was monitored for 24 hours to evaluate lethal concentrations (LC). LC is defined as the minimal concentration that caused death.
Safety index is defined as the ratio between the lethal dose (LC) and the minimal effective concentration (MEC), wherein MEC corresponds to a calculated concentration of the tested compound that elicits accumulation of three times the amount of Evans blue accumulated in control animals treated with vehicle only, i.e. total accumulation of 3 μg EB. The higher the LC/MEC ratio is, the higher the safety index.

[5] = tested on: blood brain barrier (BBB); experiment: BBB opening in C6 glioma-bearing rats, Evans blue accumulation in non-tumor brain; type: in vivo, Sprague Dawley rats; conditions: concentrations around EC50 (Mannitol 25%), unilateral 30 s infusion
Description: as §1, §2, §3, §4

[6] = tested on: blood brain barrier (BBB); experiment: BBB permeability to EB-albumin and Fluorescein in normal rat brains; type: in vivo; conditions: compounds at EC50 (Mannitol 25%); for Ratio F-Na/EB (mean of individual ratios): control 9.5 ± 1.6
From the text: The effect of various DP-BFAs on BBB permeabilization to molecules of different sizes was examined in vivo in the model system of normal rat brains.
The transport of two markers was followed: a) Evans blue bound to albumin (MW 70 kD) as an indicator for paracellular transport; and b) Fluorescein sodium salt (MW 376 D) that represents small size molecules.
The Evans blue dye (EB) and Fluorescein sodium salt (F—Na) were infused into the artery carotis externa over 30 seconds according to the protocol described above in Example 17. The test compounds were used at their EC50 concentrations. Control animals were treated with vehicle solution.
Evans blue extravasation is expressed as the percentage of the total amount of EB accumulated per one gram of brain tissue. The transport of fluorescein into the brain, which is dependent on the serum concentration of this molecule, is presented as percentage of the F—Na level in the serum.

Molecule | EC50 [1] | BTB EB μg/g Tumor [1] | Specificity Tumor/Non-tumor (T/NT) [1] | LogPc (octanol-saline partition coefficient) [2] | Water mg/ml (solubility in aqueous solution) [2] | Octanol mg/ml (solubility in octanol) [2] | MEC [3] | LC (minimal concentration that caused death) [4] | BBB EB μg/g Non-tumor brain [5] | Safety LC/MEC [4] | Ratio F-Na/EB (mean of individual ratios) [6] | μg EB/g brain (at EC50) [3] | EC50 [3] | permeabilization of the BBB (FIG. 1, in words) [3] | MEC (minimal effective concentration) [3] | % EB/g brain ([6]; control 0.04 ± 0.01) | Brain fluorescein uptake (% of serum F-Na level) ([6]; control 0.3 ± 0.08)
4-Hexadecanoyloxyethyl phosphate [3,12-MEG-PO4] | 22 ± 3 µM | 25 ± 3 µg/g | 1.2 ± 0.2 | 1.09 | >10 mg/mL | >10 mg/mL | 11 ± 2 | 80 ± 15 µM | 21 ± 4 µg/g |  |  |  |  |  |  |  | 
4-Hexadecanyl Phosphate [3,12-PO4] | 10 ± 2 µM | 14 ± 6 µg/g | 6.3 ± 1.3 | 1.9 | >2.5 mg/mL | <5 mg/mL | 3.3 ± 0.5 | 63 ± 12 µM | 2.5 ± 1.5 µg/g | 19.1 | 5.9 |  |  |  |  |  | 
4-Octadecyl phosphate [3,14-PO4] |  |  |  |  |  |  | 6.2 ± 0.9 | 134 ± 18 µM |  | 21.6 |  |  |  |  |  |  | 
CCCCCCCC(CCC)C(=O)[O-].[Na+] (stereo not shown) [3,7-Na, reference compound] |  |  |  |  |  |  |  |  |  |  |  | 0.8 μg EB/g brain | > 450 µM |  |  |  | 
CCCCCCCCCCC(CCC)C(=O)[O-].[Na+] (stereo not shown) [3,10-Na, reference compound] |  |  |  |  |  |  |  |  |  |  |  | 08 μg EB/g brain | ~700 µM |  |  |  | 
CCCCCCCCCCCCC(CCC)OCCOCCOP(=O)(O)O (stereo not shown) [3,12-(ether)-DEG-PO4, 2-(4′-Hexadecanyloxy)ethoxyethyl phosphate] |  |  |  | 0.83 | >5 mg/mL | >5 mg/mL |  |  |  |  |  |  |  |  |  |  | 
CCCCCCCCCCCCCCC(CCC)C(=O)[O-].[Na+] (stereo not shown) [3,14-Na, reference compound] |  |  |  | 1.26 | >10 mg/mL | >20 mg/mL | 9.1 ± 1.2 | 78 ± 11 µM |  | 8.6 | 4.7 and 4.7 ± 1.7 | 16.5 ± 2.5 μg EB/g brain | 40 ± 5 µM | active | 9.1 ± 12 | 0.8 ± 0.07% | 3.8 ± 0.5 % of the F—Na level in the ser
CCCCCCCCCCCCCCCCC(CCC)C(=O)[O-].[Na+] (stereo not shown) [3,16-Na, reference compound] |  |  |  | 1.26 | 9.4 mg/mL | >20 mg/mL | 18 ± 2 | 431 ± 55 µM |  | 23.9 |  |  | 137 ± 17 µM | active | 18 ± 2 |  | 
CCCCCCCC(CCCCCCC)OP(=O)(O)O [7,7-PO4, 8-Pentadecyl phosphate] |  |  |  | <5 | >10 mg/mL | >10 mg/mL |  |  |  |  |  |  |  |  |  |  | 
